Laboratory results from patent EP4653444A1, “FUSED TRICYCLIC COMPOUND AS KINASE INHIBITOR” (Hangzhou Innogate Pharma Co., Ltd., priority 2023, dated 2024).
Read-outs that look alike come from different tables or passages of the source.

How the values were obtained:
[1] = Pharmacokinetic study in rats; details: rat, plasma, po, 3 mg/kg
FAK kinase [2] = target: T1, FAK kinase (Homo sapiens, UniProt Q05397); assay: FAK kinase activity inhibition assay, method A (HTRF); format: biochemical
Description: (§1) The HTRF method was used to evaluate the inhibitory activity of the compounds against FAK kinase. […]. The reaction conditions were: FAK kinase at 0.1 ng/µL; ATP 10 µM; substrate concentration 1 µM. Compounds were serially diluted in DMSO and shaken on a shaker for 20 minutes. Prepare 2× kinase using 1× reaction buffer. Transfer 25 nL compound to a 384-well plate using Echo 655. Add 2.5 µL kinase per well. Seal the plate with sealing film, centrifuge at 1000 rpm for 60 seconds, and incubate at 25°C for 12 hours. Prepare 2× ATP/substrate mix using 1× enzyme reaction buffer and add 2.5 µL 2× ATP/substrate mix per well. Seal the plate with sealing film, centrifuge at 1000 rpm for 60 seconds, and incubate at 25°C for 50 minutes. Prepare 2×XL665 & antibody solution using HTRF detection buffer, and add 5 µL per well. Incubate at 25°C for 60 minutes. Read fluorescence at 620 nm (Cryptate) and 665 nm (XL665). Calculate the ratio per well (Ratio_665/620 nm). % Inhibition = 100% - [(Compound Ratio - Positive Control Ratio)/ (Negative Control Ratio - Positive Control Ratio)] × 100%. IC50 values (half-maximal inhibitory concentration) were calculated by nonlinear regression using GraphPad Prism 7.0. Y = Bottom + (Top - Bottom)/ (1 + 10^ ((LogIC50 - X) × Hill Slope)), where X is the log of compound concentration and Y is the % inhibition.

FAK kinase [3] = target: T1, FAK kinase; assay: FAK kinase activity inhibition assay, method A (HTRF) and method B (Lantha screen); format: biochemical
Description: as §1
The Lantha screen assay was used to evaluate the FAK kinase inhibitory activity. Compounds were dissolved in 100% DMSO at 10 mM stock concentration. Prepare 1× kinase buffer (25 mM HEPES, pH 7.5, 0.01 mM Triton, 0.5 mM EGTA, 0.01% Brij-35). Dilute compounds in a gradient, and transfer 5 µL compound into the reaction plate. Prepare 2× kinase solution with 1× Kinase buffer. Add 5 µL kinase solution to compound and positive control wells, and 5 µL 1× Kinase buffer to negative control wells. Mix reaction plate by shaking. Prepare 4× ATP/Fluorescein-polyGT substrate mix with 1× Kinase buffer. Add 2.5 µL substrate solution to initiate the reaction. Shake and incubate at room temperature for 30 minutes. Prepare 2× detection reagent (2 nM antibody, 10 mM EDTA) and add 10 µL per well to stop the reaction. Briefly centrifuge, mix, and incubate for 60 minutes. Read fluorescence at 340 nm excitation and 520 nm/495 nm emission using EnVision. Collect data and calculate 520 nm/495 nm ratio. Calculate the inhibition percentage using the formula: % Inhibition = (Max - Sample Ratio)/(Max - Min) × 100, where min is the mean of negative control wells (no enzyme activity), and max is the mean of positive control wells (DMSO-inhibited conversion rate).Use XLFit Excel add-in version 5.4.0.8 to determine the IC50 values of each compound against the enzyme activity: Y = Bottom + (Top - Bottom)/(1 + (IC50/X)^HillSlope).

TNK1 kinase = target: T2, TNK1 kinase (Homo sapiens, UniProt Q13470); assay: TNK1 kinase activity inhibition assay (ADP-Glo); format: biochemical
T2 sequence (Q13470 1-666): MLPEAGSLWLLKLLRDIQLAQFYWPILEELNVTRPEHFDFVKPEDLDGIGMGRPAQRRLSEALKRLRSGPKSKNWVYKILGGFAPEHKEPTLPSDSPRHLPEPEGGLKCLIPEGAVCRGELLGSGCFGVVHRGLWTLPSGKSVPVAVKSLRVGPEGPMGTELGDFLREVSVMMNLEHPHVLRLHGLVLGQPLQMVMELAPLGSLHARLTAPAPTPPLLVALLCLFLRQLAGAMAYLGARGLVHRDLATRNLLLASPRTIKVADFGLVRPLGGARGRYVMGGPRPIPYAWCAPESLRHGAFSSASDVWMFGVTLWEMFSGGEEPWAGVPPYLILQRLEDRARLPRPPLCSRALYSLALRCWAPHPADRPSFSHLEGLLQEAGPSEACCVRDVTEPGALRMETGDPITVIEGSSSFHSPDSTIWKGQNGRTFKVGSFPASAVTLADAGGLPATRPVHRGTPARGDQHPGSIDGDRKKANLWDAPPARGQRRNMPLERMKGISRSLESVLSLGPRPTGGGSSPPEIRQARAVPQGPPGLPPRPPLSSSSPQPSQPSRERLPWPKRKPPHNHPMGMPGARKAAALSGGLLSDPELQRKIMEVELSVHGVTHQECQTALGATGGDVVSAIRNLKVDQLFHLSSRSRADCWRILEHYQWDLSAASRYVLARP
Description: Measure compound inhibitory activity against TNK1 kinase using ADP-Glo Assay. 1× kinase reaction buffer was prepared (working concentrations: HEPES 50 mM, MgCl2 10 mM, Brij35 0.01%, EGTA 1 mM, DTT 2 mM). 2× kinase and 4× substrate buffers were prepared with the following working concentrations: For TNK1 kinase: kinase solution at 5 nM; substrate mixture containing ATP at 45 µM and MBP substrate at 0.1 mg/ mL. For ULK2 kinase: kinase solution at 0.15 nM; substrate mixture containing ATP at 6 µM and MBP substrate at 0.1 mg/mL. Compounds were serially diluted in DMSO and shaken on an orbital shaker for 20 minutes. 2× kinase solution was prepared using 1× kinase reaction buffer. 20 nL of compound solution was transferred to a 384-well plate. 2 µL of kinase solution was added to each well of the reaction plate. The plate was sealed with adhesive film, centrifuged at 1000 rpm for 60 seconds, and incubated at 25°C for 10 minutes. 2× ATP&MBP mixture was prepared using 1× kinase reaction buffer. 2 µL of 2× ATP&substrate mixture was added to the reaction plate. The plate was sealed with adhesive film, centrifuged at 1000 rpm for 60 seconds, and incubated at 25°C for 60 minutes. 4 µL of ADP-Glo reagent was transferred to the 384-well reaction plate, centrifuged at 1000 rpm for 1 minute, and incubated at 25°C for 40 minutes. 8 µL of Detection solution was transferred to the 384-well reaction plate, centrifuged at 1000 rpm for 1 minute, and incubated at 25°C for 40 minutes. Relative luminescence units (RLU) were measured using a BMG microplate reader, with signal intensity representing kinase activity level. The inhibition percentage was calculated as follows: % inhibition = 100% - [(Compound RLU - Positive Control RLU)/(Negative Control RLU - Positive Control RLU)] × 100%. The IC50 values (half-maximal inhibitory concentration) of compounds were determined by fitting the data to the following nonlinear regression equation using GraphPad Prism 7.0 software: Y = Bottom + (Top - Bottom)/(1 + 10^((LogIC50 - X) × Hill Slope)), where: X = log(compound concentration), Y = % inhibition. Table1: Inhibitory activity of compounds against ULK (IC50, nM)

[4] = Table 2, HTRF, ATP 10 µM, read-out: FAK (method A) (IC50)
[5] = Table 4, read-out: FAK(method A and method B) (IC50)

T1 sequence (Q05397 whole entry): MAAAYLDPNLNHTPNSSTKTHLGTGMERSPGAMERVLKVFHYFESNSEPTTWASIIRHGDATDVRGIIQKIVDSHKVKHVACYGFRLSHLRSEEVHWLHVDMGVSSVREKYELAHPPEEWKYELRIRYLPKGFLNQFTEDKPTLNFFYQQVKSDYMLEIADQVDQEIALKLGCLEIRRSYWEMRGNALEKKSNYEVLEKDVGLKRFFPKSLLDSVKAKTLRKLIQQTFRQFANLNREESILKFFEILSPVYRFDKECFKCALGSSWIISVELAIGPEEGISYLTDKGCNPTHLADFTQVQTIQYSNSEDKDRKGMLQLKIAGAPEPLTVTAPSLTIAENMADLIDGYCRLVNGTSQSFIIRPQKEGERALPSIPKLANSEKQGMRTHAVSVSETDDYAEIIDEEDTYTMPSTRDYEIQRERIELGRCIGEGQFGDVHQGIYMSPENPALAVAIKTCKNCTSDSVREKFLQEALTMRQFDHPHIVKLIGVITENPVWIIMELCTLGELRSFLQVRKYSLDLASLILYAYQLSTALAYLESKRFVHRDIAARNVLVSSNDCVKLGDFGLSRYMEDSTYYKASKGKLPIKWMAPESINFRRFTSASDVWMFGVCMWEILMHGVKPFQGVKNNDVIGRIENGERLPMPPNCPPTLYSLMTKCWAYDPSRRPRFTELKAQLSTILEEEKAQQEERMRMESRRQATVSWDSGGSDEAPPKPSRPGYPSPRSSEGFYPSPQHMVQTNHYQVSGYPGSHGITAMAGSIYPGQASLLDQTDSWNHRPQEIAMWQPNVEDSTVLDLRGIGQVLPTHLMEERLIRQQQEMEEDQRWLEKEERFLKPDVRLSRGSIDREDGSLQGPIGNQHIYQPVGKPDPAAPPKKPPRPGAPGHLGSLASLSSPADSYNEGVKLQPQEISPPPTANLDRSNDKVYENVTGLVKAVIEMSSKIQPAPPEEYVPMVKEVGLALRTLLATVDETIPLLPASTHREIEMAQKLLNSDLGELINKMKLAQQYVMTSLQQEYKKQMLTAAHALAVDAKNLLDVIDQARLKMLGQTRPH

Row | Structure (SMILES) | AUC(0-t) at 24 h [1] [ng·h/mL] | Cmax [1] [ng/mL] | Tmax [1] [h] | half-life [1] [h] | IC50 (FAK kinase [2]; [4]) [nM] | IC50 (FAK kinase [2]) [nM] | IC50 (FAK kinase [3]; Table 3, read-out: FAK(method A and B) (IC50)) [nM] | IC50 (FAK kinase [3]) [nM] | IC50 (FAK kinase [3]; [5]) [nM] | IC50 (TNK1 kinase) [nM] | IC50 (TNK1 kinase; Table 5, ATP 45 µM, read-out: TNK1 (IC50)) [nM]
1 | CCc1cc2c(cc1Nc1ncc(C(F)(F)F)c(NCCCN3CCOCCC3=O)n1)OC[C@@H]1CN(C3CCN(C)CC3)CCN21 [Compound A2S] | 98 | 11.8 | 1.17 | 7.05 |  |  |  |  |  |  | 
2 | COc1cc2c(cc1Nc1ncc(C(F)(F)F)c(CCc3ccccc3CC(N)=O)n1)OC[C@H]1CN(C)CCN21 [Compound B1R] | 2330 | 387 | 2.7 | 2.9 | < 0.5 |  |  |  |  |  | 
3 | COc1cc2c(cc1Nc1ncc(C(F)(F)F)c(CCc3ccccc3CC(N)=O)n1)OC[C@H]1CN(C3CCN(C)CC3)CCN21 [Compound B2R] | 880 | 76.4 | 4.7 | 7.4 |  | < 0.5 |  |  |  |  | 
4 | COc1cc2c(cc1Nc1ncc(C(F)(F)F)c(CCc3ccccc3CC(N)=O)n1)OC[C@H]1CNCCN21 [Compound B3R] | 690 | 68.9 | 3.3 | 7.9 | < 0.5 |  |  |  |  |  | 
5 | COc1cc2c(cc1Nc1ncc(C(F)(F)F)c(CCc3ccccc3CC(N)=O)n1)OC[C@H]1CN(C3CCOCC3)CCN21 [Compound B4R] | 568 | 200 | 0.8 | 1.5 |  | < 0.5 |  |  |  |  | 
6 | COc1cc2c(cc1Nc1ncc(C(F)(F)F)c(CCc3ccccc3CC(N)=O)n1)OC[C@H]1CN(C3CCNCC3)CCN21 [Compound B10R] |  |  |  |  | < 0.5 |  |  |  |  |  | 
7 | CC(C)Oc1cc2c(cc1Nc1ncc(Cl)c(Nc3ccccc3S(=O)(=O)C(C)C)n1)OC[C@@H]1CN(C3CCN(C)CC3)CCN21 [Compound C3S] |  |  |  |  |  |  | < 5 |  |  |  | 
8 | CNC(=O)c1ccccc1Nc1cc(Nc2cc3c(cc2OC)N2CCN(C4CCOCC4)C[C@H]2CO3)ncc1C(F)(F)F [Compound D1S] | 11000 | 2320 | 1.67 | 2.63 |  |  |  | < 0.5 |  |  | 
9 | CNC(=O)c1ccccc1Nc1cc(Nc2cc3c(cc2OC)N2CCN(C4COC4)C[C@H]2CO3)ncc1C(F)(F)F [Compound D3S] |  |  |  |  |  |  |  |  | < 1 |  | 
10 | CCOc1cc2c(cc1Nc1cc(Nc3ccccc3C(=O)NC)c(C(F)(F)F)cn1)OC[C@@H]1CN(C3CCN(C)CC3)CCN21 [Compound D5S] |  |  |  |  |  |  |  |  | < 1 |  | 
11 | CNC(=O)c1ccccc1Nc1cc(Nc2cc3c(cc2OC(C)C)N2CCN(C4CCN(C)CC4)C[C@H]2CO3)ncc1C(F)(F)F [Compound D6S] | 675 | 52.3 | 6.67 | 5.74 |  |  |  | < 3 |  |  | 
12 | COc1cc2c(cc1Nc1ncc(Cl)c(Nc3cccnc3N3CCCC3=O)n1)OC[C@H]1CNCCN21 [Compound E1R] |  |  |  |  |  |  |  |  |  | < 0.5 | 
13 | COc1cc2c(cc1Nc1ncc(Cl)c(Nc3cccnc3N3CCCC3=O)n1)OC[C@H]1CN(C)CCN21 [Compound E2R] | 332 | 74.4 | 1 | 2.07 |  |  |  |  |  | < 0.5 | 
14 | COc1cc2c(cc1Nc1ncc(Cl)c(Nc3cccnc3N3CCCC3=O)n1)OC[C@H]1CN(C3CCN(C)CC3)CCN21 [Compound E3R] |  |  |  |  |  |  |  |  |  |  | < 0.5
15 | COc1cc2c(cc1Nc1ncc(Cl)c(Nc3cccnc3N3CCCC3=O)n1)OC[C@H]1CN(C3CCOCC3)CCN21 [Compound E4R] | 83.9 | 69 | 0.5 | 0.99 |  |  |  |  |  | < 0.5 | 
16 | COc1cc2c(cc1Nc1ncc(Cl)c(Nc3cccnc3N3CCCC3=O)n1)OC[C@H]1CN(C(C)=O)CCN21 [Compound E5R] | 1560 | 500 | 1 | 1.38 |  |  |  |  |  | < 0.5 | 
17 | CCC(=O)N1CCN2c3cc(OC)c(Nc4ncc(Cl)c(Nc5cccnc5N5CCCC5=O)n4)cc3OC[C@H]2C1 [Compound E6R] | 581 | 352 | 0.5 | 1.05 |  |  |  |  |  | < 1 | 
18 | COc1cc2c(cc1Nc1ncc(Cl)c(Nc3cccnc3N3CCCC3=O)n1)OC[C@H]1CN(C(=O)C3CC3)CCN21 [Compound E7R] | 473 | 292 | 0.5 | 1.08 |  |  |  |  |  | < 2 | 
19 | COc1cc2c(cc1Nc1ncc(Cl)c(Nc3cccnc3N3CCCC3=O)n1)OC[C@H]1CN(C3CN(C)C3)CCN21 [Compound E8R] | 3170 | 411 | 2 | 3.37 |  |  |  |  |  | < 2 | 
20 | CCN1CCC(N2CCN3c4cc(OC)c(Nc5ncc(Cl)c(Nc6cccnc6N6CCCC6=O)n5)cc4OC[C@H]3C2)CC1 [Compound E9R] | 1200 | 71.6 | 9.33 | 14.5 |  |  |  |  |  | < 1 | 
21 | COc1cc2c(cc1Nc1ncc(Cl)c(Nc3cccnc3N3CCCC3=O)n1)OC[C@H]1CN(C3CCN(C4CC4)CC3)CCN21 [Compound E10R] | 2000 | 133 | 3.67 | 9.69 |  |  |  |  |  | < 0.5 | 
22 | COc1cc2c(cc1Nc1ncc(Cl)c(Nc3cccnc3N3CCCC3=O)n1)OC[C@H]1CN(C3CCN(C(C)=O)CC3)CCN21 [Compound E11R] | 8110 | 1090 | 1.33 | 4.36 |  |  |  |  |  | < 1 | 
